The values below come from patent US8987217B2, “Modified saponins for the treatment of fungal infections” (The General Hospital Corporation, priority 2010, dated 2015).

Molecules are shown by their SMILES. Converted amounts (≈) assume the structure as drawn. Like-named read-outs stand apart in the source and are kept apart here.

Assay type in all cases: cell-based
In one assay the test system is C. albicans biofilm. The assay can be described thus: biofilm formation on silicone pads (dry mass). The following applies: 10 μg/mL (below the MIC), compared with caspofungin. How it is done:
The minimal inhibitory concentration (MIC) was determined for strains DAY185, 98-145, 95-120 (White et al., Antimicrob Agents Chemother, 46:1704-1713 (2002)), and A15-10 (Garcia-Effron et al., Antimicrob Agents Chemother, 53:112-122 (2009)) spectrophotometrically using RPMI 1640 media (Mediatech, Inc.) following the standard CLSI microdilution protocol M27-A (National Committee for Clinical Laboratory Standards, Reference method for broth dilution susceptibility testing of yeasts. Tentative standard M27-A, Villanova, Pa. (1995)). Biofilm assays using identified compounds were conducted as previously described (Richard et al., Eukaryot Cell, 4:1493-1502 (2005)). The biofilm dry mass was determined by drying the silicone squares in a chemical hood, and weighing the resulting biofilm mass subtracting the previously weighed mass of the silicone square. […]
Caspofungin (Merck) served as a known antifungal compound control. In vitro hyphal inhibition was assessed by incubation of DAY185 in RPMI 1640 media at 37° C. […] The ability of the antifungal compound A16, at either 2 or 4 μg/mL, to induce osmotic stress was assessed using DAY185 grown in a 96 well microtiter plate containing RPMI 1640 media and NaCl, ranging in concentrations from 0-2 M in 0.25 M increments. The growth of the fungus was measured spectrophotometrically after 48 hours of growth at 35° C.

In another assay the test system is C. albicans strains. The assay is described as follows: MIC by standard CLSI microdilution protocol M27-A. How it is done: Using the standard Clinical and Laboratory Standards Institute (CLSI) procedure, the in vitro MIC of these two compounds was determined on the following C. albicans strains: DAY185 (the standard strain used throughout the screen), two fluconazole-resistant strains of C. albicans, and an echinocandin-resistant strain of C. albicans (Table 2).
The minimal inhibitory concentration (MIC) was determined for strains DAY185, 98-145, 95-120 (White et al., Antimicrob Agents Chemother, 46:1704-1713 (2002)), and A15-10 (Garcia-Effron et al., Antimicrob Agents Chemother, 53:112-122 (2009)) spectrophotometrically using RPMI 1640 media (Mediatech, Inc.) following the standard CLSI microdilution protocol M27-A (National Committee for Clinical Laboratory Standards, Reference method for broth dilution susceptibility testing of yeasts. Tentative standard M27-A, Villanova, Pa. (1995)). Biofilm assays using identified compounds were conducted as previously described (Richard et al., Eukaryot Cell, 4:1493-1502 (2005)). The biofilm dry mass was determined by drying the silicone squares in a chemical hood, and weighing the resulting biofilm mass subtracting the previously weighed mass of the silicone square. Biofilm pictures were captured using a confocal laser microscope (TCS NT, Leica Microsystems). Cells were grown at 30° C., exposed to PS for 30 min, and then washed with PBS.

The next assay concerns C. albicans DAY185. The assay can be described thus: photodynamic inactivation (PDI) with photosensitizers. To be noted: 4 μg/mL A16, 10 μM PEI-ce6. As for the experimental part: The PS used were Rose Bengal (RB, Sigma-Aldrich, St. Louis, Mo.) and chlorin(e6) (ce6, Frontier Scientific, Logan, Utah). PEI-ce6 was synthesized as a covalent conjugate between polyethylenimine (MW range 10,000-25,000, an average of one ce6 per chain) and ce6 as described previously (Tegos et al., Antimicrob Agents Chemother, 50:1402-1410 (2006)). Stock solutions were prepared in water at a concentration of 2 mM and stored for a maximum of 2 weeks in the dark at 4° C. before use. Spectra of stock solutions of PS diluted 140- to 280-fold in methanol were recorded. A noncoherent light source with interchangeable fiber bundles (LC122; LumaCare, London, United Kingdom) was employed. Thirty-nanometer-band-pass filters at ranges of 540±15 nm for RB, and 660±15 nm for ce6 and PEI-ce6 were used. […]
Photodynamic inactivation utilizes a non-toxic dye, or photosensitizer (PS), which is able to generate reactive oxygen species, such as singlet oxygen and hydroxyl radical, in the presence of oxygen and low-intensity light of the correct wavelength to be absorbed by the PS ultimately producing toxic effects in microbial cells (Fuchs et al., Antimicrob Agents Chemother, 51:2929-2936 (2007)). […] The survival fraction and uptake (molecules/cell) of C. albicans was determined for PDI mediated by the 3 different PSs with or without A16 pre-incubation for various time periods ranging between 1-24 hours. […]

Usually MIC stands for the least concentration at which growth counts as inhibited. Low values mean greater potency, high ones weaker potency.

For `CC1CC[C@@]2(OC1)O[C@H]1CC3C4C[C@@H](O)C5C[C@@H](O[C@@H]6O[C@H](CO)[C@H](O[C@@H]7O[C@H](CO)[C@@H](O)[C@H](O[C@@H]8OC[C@@H](O)[C@H](O)[C@H]8O)[C@H]7O[C@@H]7O[C@H](CO)[C@@H](O)[C@H](O)[C@H]7O)[C@H](O)[C@H]6O)[C@H](O)C[C@]5(C)C4CC[C@]3(C)[C@H]1[C@@H]2C` (some centres unmarked) [A16, Aginoside], the biofilm formation entry in the assay with C. albicans biofilm is recorded as “able to inhibit biofilm formation”. Besides, the MIC against C. albicans strains, in the assay with C. albicans strains (C. albicans DAY185) and against C. albicans strains (echinocandin-resistant strain A15) was 16 µg/mL (≈ 15 µM) in each case. In addition, the “killing by PEI-ce6 mediated PDI after pre-incubation with A16” value in the assay on C. albicans DAY185 was “does not change dramatically”.
